Measurements taken from ChEMBL document CHEMBL1201862, “PubChem BioAssay data set” (2004).
The source made the active and inactive calls.

What was measured:
[1] = biological target: Phospholipase A2 (Homo sapiens, UniProt P04054); type: functional;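 further: confirmatory dose-response counterscreen on phospholipase A2, testing hits that came from an ultra-high-throughput screen for ATG4B inhibitors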
[2] = biological target: T1, Genome polyprotein (Hepatitis C virus, UniProt Q2Q167); experiment: HCV core protein dimerization inhibitors, dose response, biochemical, TR-FRET (AID 2159); design: species or system Hepacivirus hominis;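 further: blocks dimerization of HCV core protein measured by TR-FRET between tagged core106 pairs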
T1 sequence (Q2Q167 whole entry): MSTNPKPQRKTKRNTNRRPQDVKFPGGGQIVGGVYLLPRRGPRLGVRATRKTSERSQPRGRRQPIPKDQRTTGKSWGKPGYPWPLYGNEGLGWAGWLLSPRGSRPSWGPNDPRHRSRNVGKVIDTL

[3] = biological target: T2, Voltage-gated N-type calcium channel alpha-1B subunit/Amyloid beta A4 precursor protein-binding family A member 1 (Homo sapiens, UniProt Q00975+Q02410); type: protein assay
T2 sequence (Q00975 whole entry): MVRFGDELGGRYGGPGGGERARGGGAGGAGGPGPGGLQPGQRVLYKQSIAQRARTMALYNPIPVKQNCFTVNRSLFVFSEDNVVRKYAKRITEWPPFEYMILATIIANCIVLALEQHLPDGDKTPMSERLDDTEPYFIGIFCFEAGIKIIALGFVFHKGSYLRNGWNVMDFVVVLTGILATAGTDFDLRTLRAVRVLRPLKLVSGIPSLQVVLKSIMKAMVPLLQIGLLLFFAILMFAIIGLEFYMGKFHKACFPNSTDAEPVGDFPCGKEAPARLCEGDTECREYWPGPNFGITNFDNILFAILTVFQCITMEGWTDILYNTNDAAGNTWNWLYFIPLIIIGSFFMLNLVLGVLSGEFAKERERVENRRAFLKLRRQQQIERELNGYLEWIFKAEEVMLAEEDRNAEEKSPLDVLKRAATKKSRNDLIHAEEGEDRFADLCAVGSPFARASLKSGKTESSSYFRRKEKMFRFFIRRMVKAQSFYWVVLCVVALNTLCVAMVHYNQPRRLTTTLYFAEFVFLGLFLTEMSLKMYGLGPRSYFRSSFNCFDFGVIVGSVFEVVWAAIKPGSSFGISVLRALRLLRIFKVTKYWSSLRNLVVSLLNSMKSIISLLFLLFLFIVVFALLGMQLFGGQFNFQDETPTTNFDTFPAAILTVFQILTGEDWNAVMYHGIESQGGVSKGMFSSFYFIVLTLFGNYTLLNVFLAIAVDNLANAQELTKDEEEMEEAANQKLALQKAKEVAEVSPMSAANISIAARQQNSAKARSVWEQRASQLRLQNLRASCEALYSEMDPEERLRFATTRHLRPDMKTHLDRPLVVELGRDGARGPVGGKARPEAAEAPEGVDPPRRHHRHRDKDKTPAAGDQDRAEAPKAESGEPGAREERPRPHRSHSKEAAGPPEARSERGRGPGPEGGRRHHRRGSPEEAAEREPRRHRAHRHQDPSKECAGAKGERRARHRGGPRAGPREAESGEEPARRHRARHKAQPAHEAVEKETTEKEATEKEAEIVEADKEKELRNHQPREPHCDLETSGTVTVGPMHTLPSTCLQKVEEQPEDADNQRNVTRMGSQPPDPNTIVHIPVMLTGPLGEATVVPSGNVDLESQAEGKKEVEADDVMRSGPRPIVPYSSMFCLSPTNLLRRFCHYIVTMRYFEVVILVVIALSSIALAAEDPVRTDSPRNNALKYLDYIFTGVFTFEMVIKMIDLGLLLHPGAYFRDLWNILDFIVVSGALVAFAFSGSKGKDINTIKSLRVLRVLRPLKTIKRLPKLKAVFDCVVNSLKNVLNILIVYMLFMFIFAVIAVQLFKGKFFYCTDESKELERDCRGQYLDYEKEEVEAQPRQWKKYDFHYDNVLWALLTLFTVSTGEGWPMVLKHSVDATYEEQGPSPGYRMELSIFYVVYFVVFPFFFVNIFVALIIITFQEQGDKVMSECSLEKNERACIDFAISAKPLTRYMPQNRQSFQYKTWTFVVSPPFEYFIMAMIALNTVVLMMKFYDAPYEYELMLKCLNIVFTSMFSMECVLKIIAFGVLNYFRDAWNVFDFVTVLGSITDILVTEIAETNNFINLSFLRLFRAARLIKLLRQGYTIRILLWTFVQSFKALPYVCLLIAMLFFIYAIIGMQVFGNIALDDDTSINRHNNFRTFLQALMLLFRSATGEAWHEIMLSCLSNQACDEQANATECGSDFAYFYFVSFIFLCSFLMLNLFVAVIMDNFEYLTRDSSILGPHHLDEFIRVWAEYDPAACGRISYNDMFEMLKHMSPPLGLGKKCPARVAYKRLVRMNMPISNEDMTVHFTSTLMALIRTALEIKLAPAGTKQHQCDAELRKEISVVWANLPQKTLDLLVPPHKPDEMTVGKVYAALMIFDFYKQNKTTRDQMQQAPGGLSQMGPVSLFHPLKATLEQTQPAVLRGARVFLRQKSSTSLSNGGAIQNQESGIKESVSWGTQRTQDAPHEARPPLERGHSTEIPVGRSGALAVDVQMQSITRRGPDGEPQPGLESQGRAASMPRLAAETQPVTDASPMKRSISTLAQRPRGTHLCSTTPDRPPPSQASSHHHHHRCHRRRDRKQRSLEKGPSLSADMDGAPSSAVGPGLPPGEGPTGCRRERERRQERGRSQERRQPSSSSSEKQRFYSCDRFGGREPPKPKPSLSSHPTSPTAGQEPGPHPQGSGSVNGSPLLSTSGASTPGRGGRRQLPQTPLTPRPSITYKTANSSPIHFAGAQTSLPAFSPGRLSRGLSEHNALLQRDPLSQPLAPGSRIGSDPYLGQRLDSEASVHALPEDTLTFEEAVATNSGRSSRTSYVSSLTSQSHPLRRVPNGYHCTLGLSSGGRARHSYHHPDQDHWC
T2 sequence (Q02410 whole entry): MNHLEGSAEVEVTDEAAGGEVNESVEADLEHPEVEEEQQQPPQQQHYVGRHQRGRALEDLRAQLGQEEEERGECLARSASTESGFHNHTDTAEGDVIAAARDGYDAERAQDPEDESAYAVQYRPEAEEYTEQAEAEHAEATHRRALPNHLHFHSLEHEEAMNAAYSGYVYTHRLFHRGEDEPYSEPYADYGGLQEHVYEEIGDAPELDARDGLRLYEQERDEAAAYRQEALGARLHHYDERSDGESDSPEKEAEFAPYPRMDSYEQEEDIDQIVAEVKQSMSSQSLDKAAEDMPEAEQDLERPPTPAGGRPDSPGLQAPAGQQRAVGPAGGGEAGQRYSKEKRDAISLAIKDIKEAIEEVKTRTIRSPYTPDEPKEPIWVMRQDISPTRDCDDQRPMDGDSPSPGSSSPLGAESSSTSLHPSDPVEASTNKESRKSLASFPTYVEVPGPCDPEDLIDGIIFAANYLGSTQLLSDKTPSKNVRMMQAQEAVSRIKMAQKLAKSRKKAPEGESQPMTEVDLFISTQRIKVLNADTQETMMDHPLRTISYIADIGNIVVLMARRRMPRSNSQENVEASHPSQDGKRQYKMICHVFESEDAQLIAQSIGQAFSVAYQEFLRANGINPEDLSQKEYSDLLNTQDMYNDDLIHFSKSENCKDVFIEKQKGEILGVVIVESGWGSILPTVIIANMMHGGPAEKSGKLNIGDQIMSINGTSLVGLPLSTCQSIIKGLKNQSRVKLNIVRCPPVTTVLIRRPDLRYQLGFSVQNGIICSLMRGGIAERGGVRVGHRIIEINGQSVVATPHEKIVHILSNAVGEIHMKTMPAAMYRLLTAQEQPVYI

[4] = biological target: Large T antigen (Simian virus 40, UniProt P03070); type: functional, Betapolyomavirus macacae;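 further: Confirmatory-stage PubChem screen for compounds that inhibit SV40 T antigen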
[5] = biological target: T3, Estrogen receptor (Homo sapiens, UniProt P03372);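 further: potency for inhibiting coactivator peptide recruitment to the receptor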
T3 sequence (P03372 whole entry): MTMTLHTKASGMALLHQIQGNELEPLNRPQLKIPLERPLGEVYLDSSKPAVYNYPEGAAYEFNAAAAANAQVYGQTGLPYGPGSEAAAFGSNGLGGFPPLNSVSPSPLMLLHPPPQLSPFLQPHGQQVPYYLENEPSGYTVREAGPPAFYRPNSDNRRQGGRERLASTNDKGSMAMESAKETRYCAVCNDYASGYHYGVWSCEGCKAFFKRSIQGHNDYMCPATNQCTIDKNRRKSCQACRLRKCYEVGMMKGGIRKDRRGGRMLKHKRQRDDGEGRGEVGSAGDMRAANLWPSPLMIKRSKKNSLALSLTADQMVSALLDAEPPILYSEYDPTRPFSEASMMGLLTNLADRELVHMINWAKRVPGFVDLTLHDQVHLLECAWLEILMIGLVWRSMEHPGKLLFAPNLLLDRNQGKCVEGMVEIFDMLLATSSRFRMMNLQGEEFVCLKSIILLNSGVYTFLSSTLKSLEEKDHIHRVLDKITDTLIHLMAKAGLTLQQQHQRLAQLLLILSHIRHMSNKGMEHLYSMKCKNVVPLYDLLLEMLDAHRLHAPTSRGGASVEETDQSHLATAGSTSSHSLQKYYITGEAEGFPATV

[6] = biological target: T2, Voltage-gated N-type calcium channel alpha-1B subunit/Amyloid beta A4 precursor protein-binding family A member 1; type: protein assay; remark: listed apart in the source
[7] = biological target: T4, CAAX prenyl protease 2 (Saccharomyces cerevisiae S288c, UniProt Q03530); type: biochemical
T4 sequence (Q03530 whole entry): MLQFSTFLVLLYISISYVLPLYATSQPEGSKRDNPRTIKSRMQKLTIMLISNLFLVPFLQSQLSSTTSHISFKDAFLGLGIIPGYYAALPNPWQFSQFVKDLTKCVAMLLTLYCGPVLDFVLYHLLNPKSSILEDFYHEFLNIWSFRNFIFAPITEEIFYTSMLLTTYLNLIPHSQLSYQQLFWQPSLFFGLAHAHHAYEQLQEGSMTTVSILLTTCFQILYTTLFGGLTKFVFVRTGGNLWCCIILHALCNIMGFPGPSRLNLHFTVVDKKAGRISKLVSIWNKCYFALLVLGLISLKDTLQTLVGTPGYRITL

[8] = biological target: Alkaline phosphatase, placental type (Homo sapiens, UniProt P05187); experiment: PLAP enzyme inhibitors, confirmation, biochemical, luminescence (AID 1512); type: functional
Alkaline phosphatase, placental type, sequence (P05187 whole entry): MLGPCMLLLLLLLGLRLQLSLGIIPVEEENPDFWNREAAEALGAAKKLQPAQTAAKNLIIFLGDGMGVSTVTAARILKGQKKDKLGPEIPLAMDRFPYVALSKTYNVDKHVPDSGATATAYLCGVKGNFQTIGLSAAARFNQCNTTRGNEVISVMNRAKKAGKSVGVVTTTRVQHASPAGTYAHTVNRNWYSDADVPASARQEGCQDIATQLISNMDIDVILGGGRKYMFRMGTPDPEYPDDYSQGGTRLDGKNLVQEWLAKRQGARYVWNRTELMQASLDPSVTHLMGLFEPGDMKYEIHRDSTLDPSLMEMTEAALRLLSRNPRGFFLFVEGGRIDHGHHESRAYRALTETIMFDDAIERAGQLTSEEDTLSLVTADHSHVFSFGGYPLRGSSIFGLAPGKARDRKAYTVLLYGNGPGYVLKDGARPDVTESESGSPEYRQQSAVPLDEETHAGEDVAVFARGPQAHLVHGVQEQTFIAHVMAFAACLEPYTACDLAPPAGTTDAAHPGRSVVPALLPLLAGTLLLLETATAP

[9] = biological target: T5, Alkaline phosphatase, tissue-nonspecific isozyme (Homo sapiens, UniProt P05186); experiment: human TNAP enzyme inhibitors, SAR follow-up, biochemical, luminescent, dose response (AID 1056)
T5 sequence (P05186 whole entry): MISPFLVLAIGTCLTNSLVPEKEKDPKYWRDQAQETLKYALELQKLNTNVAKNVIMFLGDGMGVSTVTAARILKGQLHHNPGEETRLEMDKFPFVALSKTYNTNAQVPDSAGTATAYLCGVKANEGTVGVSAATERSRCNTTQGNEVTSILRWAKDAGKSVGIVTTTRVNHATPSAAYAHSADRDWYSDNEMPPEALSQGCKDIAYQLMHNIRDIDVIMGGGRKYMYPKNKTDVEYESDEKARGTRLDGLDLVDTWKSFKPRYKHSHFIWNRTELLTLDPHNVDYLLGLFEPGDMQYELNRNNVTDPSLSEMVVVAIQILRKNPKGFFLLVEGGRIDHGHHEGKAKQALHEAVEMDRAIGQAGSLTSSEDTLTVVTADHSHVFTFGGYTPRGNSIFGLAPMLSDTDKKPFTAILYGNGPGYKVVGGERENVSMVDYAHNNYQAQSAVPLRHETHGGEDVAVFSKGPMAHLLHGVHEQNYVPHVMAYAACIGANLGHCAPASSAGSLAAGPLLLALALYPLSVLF

[10] = biological target: Eukaryotic translation initiation factor 4E (Mus musculus, UniProt P63073); experiment: eIF4E–eIF4G protein interaction inhibitors, dose response, biochemical, TR-FRET (AID 855); type: functional;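 further: potency for disrupting eIF4E binding to eIF4GI seen as loss of FRET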
Eukaryotic translation initiation factor 4E, sequence (P63073 whole entry): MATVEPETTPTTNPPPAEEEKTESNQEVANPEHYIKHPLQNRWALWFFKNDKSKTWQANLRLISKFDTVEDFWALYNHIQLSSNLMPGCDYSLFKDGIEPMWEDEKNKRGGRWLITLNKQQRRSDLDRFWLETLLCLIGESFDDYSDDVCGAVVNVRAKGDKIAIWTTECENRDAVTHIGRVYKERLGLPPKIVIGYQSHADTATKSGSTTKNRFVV

[11] = A cytotoxicity screen of small molecule inhibitors of the PhoP region in Salmonella typhi identified in the primary screen. [Related pubchem assays: 1850, 1864, 1985 ]; type: functional
[12] = system: Streptococcus sp. 'group A'; experiment: growth inhibition of control SK(-) GAS strain, dose response, counter-screen for streptokinase expression inhibitor project, luminescence, kanamycin, BacTiterGlo, confirmation (AID 1900); type: functional, organism-based
[13] = biological target: T6, Heat shock factor protein 1 (Mus musculus, UniProt P38532); experiment: inhibition of MG132-induced HSE-luciferase signal, confirmation, cell-based, NIH3T3, luminescence, dose retest (AID 2382); type: functional;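 further: NIH3T3 fibroblasts with HSF1-driven luciferase reporter stressed by proteasome inhibitor MG132; luminescence from HSF1-driven luciferase expression after 8 hours of MG132 stress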
T6 sequence (P38532 whole entry): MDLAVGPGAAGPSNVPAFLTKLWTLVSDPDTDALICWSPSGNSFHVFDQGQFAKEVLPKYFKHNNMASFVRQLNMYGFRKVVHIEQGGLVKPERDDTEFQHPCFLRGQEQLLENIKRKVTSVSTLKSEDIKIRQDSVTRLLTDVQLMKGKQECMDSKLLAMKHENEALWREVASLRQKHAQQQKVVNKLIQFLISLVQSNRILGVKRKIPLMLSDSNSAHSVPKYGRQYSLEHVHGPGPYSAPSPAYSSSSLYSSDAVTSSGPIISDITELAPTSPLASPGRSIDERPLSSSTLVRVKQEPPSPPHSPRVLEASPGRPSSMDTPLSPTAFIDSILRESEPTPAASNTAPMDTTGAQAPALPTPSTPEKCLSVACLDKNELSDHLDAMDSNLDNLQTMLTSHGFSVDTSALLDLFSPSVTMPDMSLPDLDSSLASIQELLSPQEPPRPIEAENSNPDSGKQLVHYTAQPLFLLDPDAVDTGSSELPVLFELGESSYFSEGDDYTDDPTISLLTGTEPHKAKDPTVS

[14] = inhibitors of intracellular T. cruzi replication, confirmation, NIH3T3 host cells, beta-gal luminescence (AID 2044); type: functional, cell-based;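 further: intracellular parasites grown in NIH/3T3 mouse fibroblasts as host cells; luminescent beta-galactosidase reporter signal from transgenic T. cruzi replicating inside host cells; inhibitors lower the luminescence signal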
[15] = cytotoxicity toward NIH3T3 fibroblasts, dose response, counter-screen, cell-based, ATP luminescence, mouse fibroblasts (AID 2010); type: functional;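 further: cells exposed to compound for about 90 hours before reading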
[16] = system: Streptococcus; experiment: Group A Streptococcus viability loss, dose response, counter-screen for streptokinase expression inhibitor project, luminescence, BacTiterGlo (AID 1915); type: functional, organism-based;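 further: potency for reduction of bacterial viability or growth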
[17] = biological target: DNA dC->dU-editing enzyme APOBEC-3A (Homo sapiens, UniProt P31941); experiment: Dose Response confirmation of small molecule APOBEC3A DNA Deaminase Inhibitors via a fluorescence-based single-stranded DNA deaminase assay. [Related pubchem assays (depositor defined):AID493011, AID493024]; type: functional
[18] = biological target: DNA dC->dU-editing enzyme APOBEC-3G (Homo sapiens, UniProt Q9HC16); type: functional;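 further: Dose-response counterscreen measuring inhibition of APOBEC3G DNA deaminase activity, run while confirming APOBEC3A inhibitors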
DNA dC->dU-editing enzyme APOBEC-3G, sequence (Q9HC16 whole entry): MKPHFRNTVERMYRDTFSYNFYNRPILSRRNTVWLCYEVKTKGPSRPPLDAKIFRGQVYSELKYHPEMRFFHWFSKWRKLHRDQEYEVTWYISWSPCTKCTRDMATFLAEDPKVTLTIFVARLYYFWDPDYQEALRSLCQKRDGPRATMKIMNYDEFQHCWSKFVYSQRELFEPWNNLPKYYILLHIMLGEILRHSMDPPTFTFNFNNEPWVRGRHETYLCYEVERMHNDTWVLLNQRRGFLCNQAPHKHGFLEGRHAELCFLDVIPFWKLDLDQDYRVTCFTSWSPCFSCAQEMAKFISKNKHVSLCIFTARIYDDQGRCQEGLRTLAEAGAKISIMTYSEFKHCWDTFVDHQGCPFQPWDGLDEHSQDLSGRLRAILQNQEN

[19] = biological target: T7, Delta-type opioid receptor (Homo sapiens, UniProt P41143); experiment: HTS Image-Based Screen for Antagonists of the DOR Receptor. [Related pubchem assays (depositor defined):AID1777, AID1785, AID1786, AID2133]; type: functional
T7 sequence (P41143 whole entry): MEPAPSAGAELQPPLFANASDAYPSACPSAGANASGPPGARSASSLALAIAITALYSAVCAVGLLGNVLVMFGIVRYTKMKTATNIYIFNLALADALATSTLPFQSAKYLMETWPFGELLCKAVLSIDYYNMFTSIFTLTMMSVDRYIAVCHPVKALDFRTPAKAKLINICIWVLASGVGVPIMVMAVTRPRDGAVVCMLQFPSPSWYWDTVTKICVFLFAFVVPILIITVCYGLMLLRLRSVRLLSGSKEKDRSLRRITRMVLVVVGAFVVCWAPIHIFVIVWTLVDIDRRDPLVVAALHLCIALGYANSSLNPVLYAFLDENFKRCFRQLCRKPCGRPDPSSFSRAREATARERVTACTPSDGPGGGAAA

[20] = biological target: Mu-type opioid receptor (Homo sapiens, UniProt P35372); experiment: HTS Image-Based Screen for Agonists of the MOR Receptor. [Related pubchem assays (depositor defined):AID1777, AID1785, AID1786, AID2133]; type: functional;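 further: imaging of beta-arrestin GFP recruitment into spots after receptor activation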
[21] = biological target: T7, Delta-type opioid receptor; experiment: HTS Image-Based Screen for Agonists of the DOR Receptor. [Related pubchem assays (depositor defined):AID1777, AID1786, AID2133]; type: functional
[22] = biological target: T8, Kappa-type opioid receptor (Homo sapiens, UniProt P41145); type: functional
T8 sequence (P41145 whole entry): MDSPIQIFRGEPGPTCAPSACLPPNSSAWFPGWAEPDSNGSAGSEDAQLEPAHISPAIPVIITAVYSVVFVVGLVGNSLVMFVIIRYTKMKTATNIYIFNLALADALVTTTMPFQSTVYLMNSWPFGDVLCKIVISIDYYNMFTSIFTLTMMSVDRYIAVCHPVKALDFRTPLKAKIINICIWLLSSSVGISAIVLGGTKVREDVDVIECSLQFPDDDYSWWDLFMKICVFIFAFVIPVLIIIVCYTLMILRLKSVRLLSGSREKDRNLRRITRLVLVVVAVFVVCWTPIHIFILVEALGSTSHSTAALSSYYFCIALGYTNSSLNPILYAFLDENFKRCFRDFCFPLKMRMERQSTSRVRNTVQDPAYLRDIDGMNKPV

[23] = biological target: Beta-galactosidase (Escherichia coli, UniProt Q8VNN2); type: functional
[24] = biological target: T8, Kappa-type opioid receptor; type: functional; remark: listed apart in the source
[25] = biological target: Voltage-dependent T-type calcium channel subunit alpha-1H (Homo sapiens, UniProt O95180); type: functional;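 further: channel activity triggered by adding a high calcium stimulation buffer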
[26] = HEp-2 cell cytotoxicity, dose response, cytotoxicity control for RSV inhibitor project, HTS (AID 2410); type: functional; details: human respiratory syncytial virus
[27] = cells
[28] = system: Vero; experiment: cells; type: functional, cell-based; details: Chlorocebus sabaeus

For `N#Cc1c(-c2cccc(Br)c2)cc(-c2ccco2)[nH]c1=O`, the IC50 [1] was 11.7 µM (active).

With `Cc1cccc(N2CSC3=C(C#N)C(c4ccc(C)o4)CC(=O)N3C2)c1` (stereo unspecified) the IC50 [2] was > 49.8 µM (not active), the IC50 [3] was 6.47 µM (active) and the IC50 [4] was 11.4 µM (active). The IC50 [5] was 3.55 µM (active) and the IC50 [6] was 22.3 µM (active).

For `Cc1cc(C)nc(NC(=S)Nc2cccc(Cl)c2Cl)c1`, the IC50 [3] was 1.27 µM (active) and the IC50 [6] was > 50 µM (inactive).

For `Cc1cc(=O)n2ccccc2c1C#N`, the AC50 [7] was 24.9 µM (active).

With `O=C(CNC1CCCCC1)c1ccc(O)c(O)c1` the IC50 [8] was 18.8 µM (active) and the IC50 [9] was > 100 µM (inactive).

With `CCn1c(C)c(C(C)=O)c(N2CCN(C(=O)c3ccco3)CC2)nc1=S` the IC50 [10] was > 64 µM (inactive).

For `CCc1cccc2c(C(=O)COC(=O)c3ccc([N+](=O)[O-])s3)c[nH]c12`, the EC50 [11] was > 50 µM (active), the EC50 [12] was 0.497 µM (active) and the EC50 [13] was 7.75 µM (active). The EC50 [14] was 0.739 µM (active), the EC50 [15] was > 30 µM (not active) and the EC50 [16] was 1.03 µM (active).

For `O=C(O)c1cc(-c2ccc(/C=C3/SC(=S)N(Cc4ccccc4)C3=O)o2)ccc1Cl`, the IC50 [10] was 15.1 µM (active).

In the case of `Cc1cccnc1NC(=O)CN1C(=O)COc2ccc(Cl)cc21`, the IC50 [17] is reported as 1.91 µM (active) and the IC50 [18] is reported as 1.65 µM (active).

In the case of `COc1ccc(CCCC(=O)NC2CCCCC2C)c(C)c1` (stereo unspecified), the IC50 [17] is reported as 3.49 µM (active) and the IC50 [18] is reported as 2.99 µM (active).

In the case of `O=C(Nc1nnc(-c2cccs2)o1)c1cccc(Oc2ccccc2)c1`, the IC50 [19] is reported as > 32 µM (inactive), the EC50 [20] is reported as > 32 µM (inactive) and the EC50 [21] is reported as > 32 µM (inactive). For the same molecule, the IC50 [22] was 9.8 µM (active), the EC50 [23] was > 31.5 µM (inactive) and the IC50 [24] was > 32 µM. The EC50 [25] was 3.02 µM (active).

With `Cn1c2ccccc2c(=O)c2c(=O)n(Cc3ccco3)c(COc3ccccc3)nc21` the CC50 [26] was 32.8 µM (active), the EC50 [14] was 0.123 µM (active) and the EC50 [15] was > 60 µM (not active). For the same molecule, the IC50 [27] was 21.2 µM (active).

For `O=C(NC(Cc1c[nH]c2ccccc12)C(=O)Nc1ccc(F)cc1)c1cccs1` (stereo unspecified), the CC50 [26] was 15.6 µM (active), the IC50 [28] was 8.41 µM (active) and the IC50 [27] was 12.8 µM (active).

For `Cc1cc(C(=O)NCc2ccc(O)c(O)c2)c(C)o1`, the IC50 [8] was > 100 µM (inactive) and the IC50 [9] was 12.5 µM (active).

In the case of `CCOc1ccccc1OCc1nn2c(COc3ccccc3)nnc2s1`, the IC50 [10] is reported as > 64 µM (inactive).

For `CC(C)(C)c1ccc(C(=O)NNC(=O)Cc2ccccc2)cc1`, the EC50 [11] was > 50 µM (active).
